Data as given in PubChem BioAssay (NCI).
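Protocol summary: plate cells (96-well), add compound at 5 concentrations, incubate 48 h, interpolate endpoints linearly. At the TGI there is no net growth.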 *1 amine or outer side, *2 acyl side, *3 side chain or, on linkers, in order; H or OH if unused. Where a SMILES comes first, the peptide text is derived from it. Bridges are numbered along the chain shown (N, C = ends). Roman numbers before positions name the chains, in order. [ ]: non-standard residue; d: D form. Actinocin(9to1) = Cc1c2oc3c(C)ccc(C(=O)[*:1])c3nc-2c(C(=O)[*:2])c(N)c1=O; X48 = O=C1CC(C(=O)[*:2])N([*:1])C1; NMeV = CN[CH](C(=O)O)C(C)C; Sar = CNCC(=O)O

Tests used:
Assay in all cases: NCI anticancer screen, dose series, 48 h
[1] = test system: 786-0 renal
[2] = test system: DU-145 prostate
[3] = test system: HL-60(TB) leukemia
[4] = test system: HT29 colon
[5] = test system: K-562 leukemia
[6] = test system: LOX IMVI melanoma
[7] = test system: M14 melanoma
[8] = test system: MOLT-4 leukemia
[9] = test system: NCI/ADR-RES ovarian
[10] = test system: OVCAR-4 ovarian
[11] = test system: OVCAR-5 ovarian
[12] = test system: OVCAR-8 ovarian
[13] = test system: SF-539 CNS
[14] = test system: SR leukemia
[15] = test system: TK-10 renal
[16] = test system: HS 578T breast
[17] = test system: SF-268 CNS
[18] = test system: SNB-75 CNS
[19] = test system: UACC-62 melanoma

| Structure (SMILES) | TGI [1] [µM] | TGI [2] [µM] | TGI [3] [µM] | TGI [4] [µM] | TGI [5] [µM] | TGI [6] [µM] | TGI [7] [µM] | TGI [8] [µM] | TGI [9] [µM] | TGI [10] [µM] | TGI [11] [µM] | TGI [12] [µM] | TGI [13] [µM] | TGI [14] [µM] | TGI [15] [µM] | TGI [16] [µM] | TGI [17] [µM] | TGI [18] [µM] | TGI [19] [µM] |
| --- | --- | --- | --- | --- | --- | --- | --- | --- | --- | --- | --- | --- | --- | --- | --- | --- | --- | --- | --- |
| Cc1c2oc3c(C)ccc(C(=O)NC4C(=O)NC(C(C)C)C(=O)N5CC(=O)CC5C(=O)N(C)CC(=O)N(C)C(C(C)C)C(=O)OC4C)c3nc-2c(C(=O)NC2C(=O)NC(C(C)C)C(=O)N3CC(=O)CC3C(=O)N(C)CC(=O)N(C)C(C(C)C)C(=O)OC2C)c(N)c1=O (configuration not stated) (I: TV[X48][Sar][NMeV] / II: TV[X48][Sar][NMeV]; ester I:1-I:C, II:1-II:C; linker I:N-II:N via Actinocin(9to1); configuration not given here) | > 1 | > 1 | > 1 | > 1 | > 1 | > 1 | > 1 | > 1 | > 1 | > 1 | > 1 | > 1 | > 1 | > 1 | > 1 | – | – | – | – |
| CCCCOC(=O)C1CN2C=CC=NC2=NC1(C(F)(F)F)C(F)(F)F (configuration not stated) | > 100 | > 100 | > 100 | > 100 | > 100 | > 100 | > 100 | > 100 | > 100 | > 100 | > 100 | > 100 | > 100 | – | > 100 | > 100 | > 100 | > 100 | > 100 |
| CC(=O)OCCCCn1cnc2nc(Nc3ccccc3)nc(Cl)c21 | > 100 | – | > 100 | > 100 | > 100 | > 100 | > 100 | > 100 | > 100 | > 100 | – | > 100 | > 100 | > 100 | > 100 | > 100 | > 100 | > 100 | > 100 |
| O=C1c2ccccc2-c2nc3ccc(O)cc3n21 | > 100 | > 100 | > 100 | > 100 | > 100 | – | > 100 | > 100 | > 100 | > 100 | > 100 | > 100 | > 100 | > 100 | > 100 | – | > 100 | > 100 | > 100 |
| OCC1NCC(O)C(O)C1O (configuration not stated) | > 100 | > 100 | > 100 | > 100 | – | – | > 100 | > 100 | – | > 100 | > 100 | > 100 | > 100 | > 100 | > 100 | > 100 | > 100 | > 100 | > 100 |
| CN(/N=C/c1cccs1)c1ccc(Cl)cc1[N+](=O)[O-] | > 100 | > 100 | 54.1 | > 100 | > 100 | – | > 100 | > 100 | 66.7 | > 100 | – | > 100 | 75 | > 100 | > 100 | 76.2 | > 100 | > 100 | > 100 |
| COc1[nH]c(C(Cl)(Cl)Cl)c(Cl)c(=O)c1Cl | > 100 | > 100 | > 100 | > 100 | > 100 | > 100 | – | > 100 | > 100 | > 100 | > 100 | > 100 | > 100 | > 100 | > 100 | – | – | – | > 100 |
| O=C(Cn1cc(-c2ccccc2)nn1)NC1CCCC1 | > 100 | > 100 | > 100 | > 100 | > 100 | > 100 | > 100 | > 100 | > 100 | > 100 | > 100 | > 100 | > 100 | > 100 | > 100 | – | > 100 | > 100 | – |
| COC(=O)C[C@@H]1C(C)(C)[C@@H]2O[C@@]34C[C@@H]2C(=O)[C@]1(C)[C@H]3CC[C@@]1(C)[C@H](c2ccoc2)OC(=O)C[C@]14O | > 100 | > 100 | > 100 | > 100 | > 100 | > 100 | > 100 | > 100 | > 100 | > 100 | > 100 | > 100 | > 100 | > 100 | > 100 | – | > 100 | > 100 | > 100 |
| COc1ccc(C(=O)N2CCc3c([nH]c4ccccc34)C2C(=O)O)o1 (configuration not stated) | > 10 | > 10 | > 10 | > 10 | > 10 | – | > 10 | > 10 | > 10 | > 10 | – | > 10 | > 10 | > 10 | > 10 | > 10 | > 10 | > 10 | > 10 |
| CC(C)(C)[Si](C)(C)OCCCCC1CC2(S(=O)(=O)C3=CC=C=C=C3)ON1CC2S(=O)(=O)c1ccccc1 (configuration not stated) | > 100 | > 100 | – | > 100 | > 100 | – | > 100 | > 100 | > 100 | > 100 | > 100 | > 100 | > 100 | – | > 100 | > 100 | > 100 | > 100 | > 100 |
| CCCCCCCCCCCCn1c(=O)cc(NCCCC)c2cc3c(NCCCC)cc(=O)n(CCCCCCCCCCCC)c3nc21 | > 100 | > 100 | – | – | > 100 | – | > 100 | > 100 | > 100 | > 100 | – | – | – | – | > 100 | – | > 100 | > 100 | > 100 |
| COC1=NC(NC2OCC(O)C(O)C2O)=C(NC(C)=O)CN1C (configuration not stated) | > 100 | > 100 | > 100 | > 100 | > 100 | > 100 | > 100 | > 100 | > 100 | > 100 | > 100 | > 100 | > 100 | – | > 100 | > 100 | > 100 | > 100 | > 100 |
